From patent US9113629B2, “4-amino-6-(4-substituted-phenyl)-picolinates and 6-amino-2-(4-substituted-phenyl)-pyrimidine-4-carboxylates and their use as herbicides” (DOW AGROSCIENCES LLC, priority 2013, dated 2015)

Tested on: Key Grass and Sedge Weeds as well as Grass Crops
Test: Post-emergent Test II herbicidal activity (Table 6)
Format: in vivo
Conditions: Triticum aestivum, post-emergence, 336 h, TRZSS (wheat), application rate 140 g ai/ha, read-out: Visual Growth Reduction (%) 14 Days After Application, TRZSS
Experimental: (§1) Post-emergent Test II: Seeds or nutlets of the desired test plant species were planted in Sun Gro Metro-Mix® 360 planting mixture, which typically has a pH of 6.0 to 6.8 and an organic matter content of about 30 percent, in plastic pots with a surface area of 64 square centimeters. When required to ensure good germination and healthy plants, a fungicide treatment and/or other chemical or physical treatment was applied. The plants were grown for 7-21 d in a greenhouse with an approximate 15 h photoperiod which was maintained at about 23-29° C. during the day and 22-28° C. during the night. Nutrients and water were added on a regular basis and supplemental lighting was provided with overhead metal halide 1000-Watt lamps as necessary. The plants were employed for testing when they reached the first or second true leaf stage.
(§2) A weighed amount, determined by the highest rate to be tested, of each test compound was placed in a 25 mL glass vial and was dissolved in 4 mL of a 97:3 v/v mixture of acetone and DMSO to obtain concentrated stock solutions. […] The concentrated stock solutions obtained were diluted with 20 mL of an aqueous mixture containing acetone, water, isopropyl alcohol, DMSO. Atplus 411F crop oil concentrate, and Triton® X-155 surfactant in a 48.5:39:10:1.5:1.0:0.02 v/v ratio to obtain spray solutions containing the highest application rates. Additional application rates were obtained by serial dilution of 12 mL of the high rate solution into a solution containing 2 mL of 97:3 v/v mixture of acetone and DMSO and 10 mL of an aqueous mixture containing acetone, water, isopropyl alcohol, DMSO, Atplus 411F crop oil concentrate, and Triton X-155 surfactant in a 48.5:39:10:1.5:1.0:0.02 v/v ratio to obtain ½×, ¼×, ⅛× and 1/16× rates of the high rate. Compound requirements are based upon a 12 mL application volume at a rate of 187 liters per hectare (L/ha). Formulated compounds were applied to the plant material with an overhead Mandel track sprayer equipped with 8002E nozzles calibrated to deliver 187 L/ha over an application area of 0.503 square meters at a spray height of 18 inches (43 cm) above the average plant canopy height. Control plants were sprayed in the same manner with the solvent blank.
(§3) The treated plants and control plants were placed in a greenhouse as described above and watered by subirrigation to prevent wash-off of the test compounds. After 14 d, the condition of the test plants as compared with that of the untreated plants was determined visually and scored on a scale of 0 to 100 percent where 0 corresponds to no injury and 100 corresponds to complete kill.

**Q.** For `COc1c(N)nc(-c2ccc(C#N)cc2)nc1C(=O)O` [Compound 25], which pest or weed control at 140 g/ha is on record?
**A.** The pest or weed control at 140 g/ha was 0 to 29%.

**Q.** With `COC(=O)c1nc(-c2ccc(OC(F)(F)F)cc2)nc(N)c1OC` [Compound 30] as the compound, how does the pest or weed control at 140 g/ha read?
**A.** Its pest or weed control at 140 g/ha is 0 to 29%.

Same assay, conditions: post-emergence, 336 h, CYPES: yellow nutsedge (Cyperus esculentus), application rate 140 g ai/ha, read-out: Visual Growth Reduction (%) 14 Days After Application, CYPES

**Q.** With `COc1c(N)nc(-c2ccc(C#N)cc2)nc1C(=O)O` [Compound 25] as the compound, how does the pest or weed control at 140 g/ha read?
**A.** The pest or weed control at 140 g/ha was 0 to 29%.

**Q.** Which pest or weed control at 140 g/ha does the source give for `COC(=O)c1nc(-c2ccc(OC(F)(F)F)cc2)nc(N)c1OC` [Compound 30] here?
**A.** The pest or weed control at 140 g/ha was 0 to 29%.

Same assay, conditions: post-emergence, 336 h, DIGSA: crabgrass (Digitaria sanguinalis), application rate 140 g ai/ha, read-out: Visual Growth Reduction (%) 14 Days After Application, DIGSA

**Q.** For `COc1c(N)nc(-c2ccc(C#N)cc2)nc1C(=O)O` [Compound 25], which pest or weed control at 140 g/ha is on record?
**A.** The pest or weed control at 140 g/ha was 0 to 29%.

**Q.** For `COC(=O)c1nc(-c2ccc(OC(F)(F)F)cc2)nc(N)c1OC` [Compound 30], which pest or weed control at 140 g/ha is on record?
**A.** Its pest or weed control at 140 g/ha is 0 to 29%.

Same assay, conditions: post-emergence, 336 h, ECHCG: barnyardgrass (Echinochloa crus-galli), application rate 140 g ai/ha, read-out: Visual Growth Reduction (%) 14 Days After Application, ECHCG

**Q.** For `COc1c(N)nc(-c2ccc(C#N)cc2)nc1C(=O)O` [Compound 25], which pest or weed control at 140 g/ha is on record?
**A.** The pest or weed control at 140 g/ha was 0 to 29%.

**Q.** Which pest or weed control at 140 g/ha does the source give for `COC(=O)c1nc(-c2ccc(OC(F)(F)F)cc2)nc(N)c1OC` [Compound 30] here?
**A.** Its pest or weed control at 140 g/ha is 0 to 29%.

Same assay, conditions: post-emergence, 336 h, ORYSA: rice (Oryza sativa), application rate 140 g ai/ha, read-out: Visual Growth Reduction (%) 14 Days After Application, ORYSA

**Q.** Which pest or weed control at 140 g/ha does the source give for `COc1c(N)nc(-c2ccc(C#N)cc2)nc1C(=O)O` [Compound 25] here?
**A.** Its pest or weed control at 140 g/ha is 0 to 29%.

**Q.** For `COC(=O)c1nc(-c2ccc(OC(F)(F)F)cc2)nc(N)c1OC` [Compound 30], which pest or weed control at 140 g/ha is on record?
**A.** Its pest or weed control at 140 g/ha is 0 to 29%.

Same assay, conditions: post-emergence, 336 h, SETFA: giant foxtail (Setaria faberi), application rate 140 g ai/ha, read-out: Visual Growth Reduction (%) 14 Days After Application, SETFA

**Q.** For `COc1c(N)nc(-c2ccc(C#N)cc2)nc1C(=O)O` [Compound 25], which pest or weed control at 140 g/ha is on record?
**A.** The pest or weed control at 140 g/ha was 0 to 29%.

**Q.** With `COC(=O)c1nc(-c2ccc(OC(F)(F)F)cc2)nc(N)c1OC` [Compound 30] as the compound, how does the pest or weed control at 140 g/ha read?
**A.** Its pest or weed control at 140 g/ha is 0 to 29%.

Same assay, conditions: post-emergence, 336 h, SORVU: grain sorghum (Sorghum vulgare), application rate 140 g ai/ha, read-out: Visual Growth Reduction (%) 14 Days After Application, SORVU

**Q.** With `COc1c(N)nc(-c2ccc(C#N)cc2)nc1C(=O)O` [Compound 25] as the compound, how does the pest or weed control at 140 g/ha read?
**A.** The pest or weed control at 140 g/ha was 0 to 29%.

**Q.** Which pest or weed control at 140 g/ha does the source give for `COC(=O)c1nc(-c2ccc(OC(F)(F)F)cc2)nc(N)c1OC` [Compound 30] here?
**A.** Its pest or weed control at 140 g/ha is 0 to 29%.

Same assay, conditions: post-emergence, 336 h, ZEAMX: maize, corn (Zea mays), application rate 140 g ai/ha, read-out: Visual Growth Reduction (%) 14 Days After Application, ZEAMX

**Q.** For `COc1c(N)nc(-c2ccc(C#N)cc2)nc1C(=O)O` [Compound 25], which pest or weed control at 140 g/ha is on record?
**A.** Its pest or weed control at 140 g/ha is 0 to 29%.

**Q.** With `COC(=O)c1nc(-c2ccc(OC(F)(F)F)cc2)nc(N)c1OC` [Compound 30] as the compound, how does the pest or weed control at 140 g/ha read?
**A.** Its pest or weed control at 140 g/ha is 0 to 29%.

Tested on: not given
Test: not given
Conditions: not given

**Q.** With `COc1c(N)nc(-c2ccc(C#N)cc2)nc1C(=O)O` [Compound 25] as the compound, how does the melting point read?
**A.** Its melting point is 185.2 to 186.1 °C.

**Q.** Which melting point does the source give for `COC(=O)c1nc(-c2ccc(OC(F)(F)F)cc2)nc(N)c1OC` [Compound 30] here?
**A.** Its melting point is 122 to 123.6 °C.

Tested on: Key Broadleaf Weed and Crop Species
Test: Post-emergent Test II herbicidal activity (Table 5)
Format: in vivo
Conditions: post-emergence, 336 h; ABUTH: velvetleaf (Abutilon theophrasti); 140 g ai/ha; post-emergent; 14 days after application; read-out: Visual Growth Reduction (%) 14 Days After Application ABUTH
Experimental: as §1, §2, §3

**Q.** Which pest or weed control at 140 g/ha does the source give for `COc1c(N)nc(-c2ccc(C#N)cc2)nc1C(=O)O` [Compound 25] here?
**A.** The pest or weed control at 140 g/ha was 0 to 29%.

**Q.** With `COC(=O)c1nc(-c2ccc(OC(F)(F)F)cc2)nc(N)c1OC` [Compound 30] as the compound, how does the pest or weed control at 140 g/ha read?
**A.** The pest or weed control at 140 g/ha was 45 to 59%.

Same assay, conditions: post-emergence, 336 h; AMARE: redroot pigweed (Amaranthus retroflexus); 140 g ai/ha; post-emergent; 14 days after application; read-out: Visual Growth Reduction (%) 14 Days After Application AMARE

**Q.** With `COc1c(N)nc(-c2ccc(C#N)cc2)nc1C(=O)O` [Compound 25] as the compound, how does the pest or weed control at 140 g/ha read?
**A.** The pest or weed control at 140 g/ha was 0 to 29%.

**Q.** With `COC(=O)c1nc(-c2ccc(OC(F)(F)F)cc2)nc(N)c1OC` [Compound 30] as the compound, how does the pest or weed control at 140 g/ha read?
**A.** The pest or weed control at 140 g/ha was 0 to 29%.

Same assay, conditions: post-emergence, 336 h; BRSNN: oilseed-rape, canola (Brassica napus); 140 g ai/ha; post-emergent; 14 days after application; read-out: Visual Growth Reduction (%) 14 Days After Application BRSNN

**Q.** With `COc1c(N)nc(-c2ccc(C#N)cc2)nc1C(=O)O` [Compound 25] as the compound, how does the pest or weed control at 140 g/ha read?
**A.** The pest or weed control at 140 g/ha was 0 to 29%.

**Q.** With `COC(=O)c1nc(-c2ccc(OC(F)(F)F)cc2)nc(N)c1OC` [Compound 30] as the compound, how does the pest or weed control at 140 g/ha read?
**A.** The pest or weed control at 140 g/ha was 0 to 29%.

Same assay, conditions: post-emergence, 336 h; CHEAL: lambsquarters (Chenopodium album); 140 g ai/ha; post-emergent; 14 days after application; read-out: Visual Growth Reduction (%) 14 Days After Application CHEAL

**Q.** Which pest or weed control at 140 g/ha does the source give for `COc1c(N)nc(-c2ccc(C#N)cc2)nc1C(=O)O` [Compound 25] here?
**A.** Its pest or weed control at 140 g/ha is 0 to 29%.

**Q.** Which pest or weed control at 140 g/ha does the source give for `COC(=O)c1nc(-c2ccc(OC(F)(F)F)cc2)nc(N)c1OC` [Compound 30] here?
**A.** The pest or weed control at 140 g/ha was 0 to 29%.

Same assay, conditions: post-emergence, 336 h; EPHHL: wild poinsettia (Euphorbia heterophylla); 140 g ai/ha; post-emergent; 14 days after application; read-out: Visual Growth Reduction (%) 14 Days After Application EPHHL

**Q.** For `COc1c(N)nc(-c2ccc(C#N)cc2)nc1C(=O)O` [Compound 25], which pest or weed control at 140 g/ha is on record?
**A.** Its pest or weed control at 140 g/ha is 0 to 29%.

**Q.** With `COC(=O)c1nc(-c2ccc(OC(F)(F)F)cc2)nc(N)c1OC` [Compound 30] as the compound, how does the pest or weed control at 140 g/ha read?
**A.** The pest or weed control at 140 g/ha was 95 to 100%.

Same assay, conditions: post-emergence, 336 h; HELAN: sunflower (Helianthus annuus); 140 g ai/ha; post-emergent; 14 days after application; read-out: Visual Growth Reduction (%) 14 Days After Application HELAN

**Q.** With `COc1c(N)nc(-c2ccc(C#N)cc2)nc1C(=O)O` [Compound 25] as the compound, how does the pest or weed control at 140 g/ha read?
**A.** The pest or weed control at 140 g/ha was 0 to 29%.

**Q.** With `COC(=O)c1nc(-c2ccc(OC(F)(F)F)cc2)nc(N)c1OC` [Compound 30] as the compound, how does the pest or weed control at 140 g/ha read?
**A.** Its pest or weed control at 140 g/ha is 0 to 29%.

Same assay, conditions: post-emergence, 336 h; VIOTR: wild pansy (Viola tricolor); 140 g ai/ha; post-emergent; 14 days after application; read-out: Visual Growth Reduction (%) 14 Days After Application VIOTR

**Q.** For `COc1c(N)nc(-c2ccc(C#N)cc2)nc1C(=O)O` [Compound 25], which pest or weed control at 140 g/ha is on record?
**A.** The pest or weed control at 140 g/ha was 0 to 29%.

**Q.** Which pest or weed control at 140 g/ha does the source give for `COC(=O)c1nc(-c2ccc(OC(F)(F)F)cc2)nc(N)c1OC` [Compound 30] here?
**A.** Its pest or weed control at 140 g/ha is 0 to 29%.
